Consider two molecules from publication PMC7862291, “Full-length in meso structure and mechanism of rat kynurenine 3-monooxygenase inhibition” (Communications Biology, 2021).

The structures appear in SMILES notation. Read-outs that look alike come from different tables or passages of the source.

Data set [1] in a line: Pharmacokinetic (brain penetration) study in rats. It is filed as in vivo. To be noted: Sprague-Dawley Crl:CD(SD), rat, male SD rats, 10 mg/kg ip, 1 h after a single administration. How it is done:
Brain penetration studies were conducted in non-fasted male SD rats [Sprague-Dawley rats Crl:CD(SD), 8 weeks of age]. Compound 1 was intraperitoneally (ip) administered at 10 mg/kg in a solution of saline containing 10% dimethylformamide, 10% propylene glycol, and 4% 1 normality (N) sodium hydrate. […] Blood and brain were collected at 1 h after a single administration. The test compound in plasma samples or brain samples was extracted by deproteination with acetonitrile, and then analysed using LC-MS/MS.

Data set [2] addresses T1, Rat KMO (Rattus norvegicus, UniProt O88867).
T1 construct: The GST-tagged full-length KMO (1-478) baculovirus vector contained a thrombin cleavage site; GST (thrombin cleavage site between GST and KMO) (N, cleaved yes); made in house; host or cells: Spodoptera frugiperda (Sf9), baculovirus
Kind of data set: Rat KMO enzyme (cell-free) assay, NADPH consumption by absorbance. It is filed as biochemical. Here is the method: (§1) Human KMO was purchased from Origene and used to assay compounds. Full-length Rat-KMO purified for crystallisation was used to assay compounds. Full-length Rat-KMO-expressing membranes were used for mutant assays (Fig. 4b) only. […] Images were taken using Odyssey CLX (LI-COR Biosciences) and quantified using ImageStudio2.0 (LI-COR Biosciences) software.
(§2) Test compounds were dissolved in DMSO and diluted with assay buffer containing 50 mM HEPES, 2 mM MgCl2, 0.5 mM EGTA, 1 mM DTT, 0.05% Tween20 and 0.005% of antiform SI (pH = about 7.9) to prepare a 4% DMSO solution. […] After 5 min of pre-incubation, reactions were started by adding 10 μL of substrate solution containing 2.4 mM kynurenine and 0.6 mM NADPH. Reactions were run for 90 min at 30 °C, then terminated by adding 5 μL of stop buffer (40 mM maleimide, 2 mM WST-9 and 0.1 mM 1-methoky PMS in water). […] Liposomal assays were performed in the same manner except that the composition of the assay buffer was changed (phosphate-buffered saline, 2 mM MgCl2, 1 mM DTT, 0.05% Tween 20).
(§3) Compound assays were analysed and plotted on graphs using Prism (GraphPad Software Inc. San Diego, CA, USA).

Data set [3] has as its target T2, hKMO (Homo sapiens, UniProt O15229).
T2 construct: purchased Origene
Kind of data set: Human KMO enzyme (cell-free) assay, NADPH consumption by absorbance. The class given is biochemical. Here is the method:
as §1, §2, §3

Broadly, the Kp is the ratio of the level in a tissue or fluid to that in plasma or blood. As a reminder, the IC50 is the concentration at which inhibition is half-maximal. One may read the inhibition as the drop in the measured response relative to a control, in per cent.

T2 sequence (O15229 whole entry): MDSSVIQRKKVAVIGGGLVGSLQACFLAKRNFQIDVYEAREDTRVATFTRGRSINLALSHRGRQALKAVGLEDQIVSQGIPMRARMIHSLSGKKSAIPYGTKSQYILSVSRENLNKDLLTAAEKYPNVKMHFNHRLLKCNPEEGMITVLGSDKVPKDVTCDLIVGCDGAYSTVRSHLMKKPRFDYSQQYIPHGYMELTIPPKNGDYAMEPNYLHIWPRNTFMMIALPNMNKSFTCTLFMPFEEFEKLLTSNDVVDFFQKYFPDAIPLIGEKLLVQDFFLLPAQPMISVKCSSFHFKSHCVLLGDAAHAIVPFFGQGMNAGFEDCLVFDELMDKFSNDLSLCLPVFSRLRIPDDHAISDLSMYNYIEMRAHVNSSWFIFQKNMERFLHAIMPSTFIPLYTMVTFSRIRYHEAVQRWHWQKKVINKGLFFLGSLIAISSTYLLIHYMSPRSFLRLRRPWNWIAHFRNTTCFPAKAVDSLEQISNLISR
T1 sequence (O88867 whole entry): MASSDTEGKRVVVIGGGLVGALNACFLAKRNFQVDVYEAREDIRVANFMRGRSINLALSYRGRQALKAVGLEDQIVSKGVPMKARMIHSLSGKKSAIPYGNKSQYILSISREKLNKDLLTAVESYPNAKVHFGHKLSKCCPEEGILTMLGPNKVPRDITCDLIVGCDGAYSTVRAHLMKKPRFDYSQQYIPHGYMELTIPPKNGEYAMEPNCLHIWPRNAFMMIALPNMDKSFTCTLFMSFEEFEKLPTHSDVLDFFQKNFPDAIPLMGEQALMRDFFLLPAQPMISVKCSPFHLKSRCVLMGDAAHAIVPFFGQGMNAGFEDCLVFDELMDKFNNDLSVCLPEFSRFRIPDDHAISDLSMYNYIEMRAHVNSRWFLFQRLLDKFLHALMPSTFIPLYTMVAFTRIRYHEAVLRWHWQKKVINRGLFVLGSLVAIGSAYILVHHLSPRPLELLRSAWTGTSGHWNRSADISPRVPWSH

`Cn1c(=O)[nH]c(=O)c2cc(-c3ncccc3-c3ccc(Cl)c(F)c3)ccc21` [Compound 5]: the Kp at 1 h in data set [1] (brain/plasma) was determined as 0.8. For the same molecule, the concentration at 1 h in data set [1] (brain, read-out: Exposure in brain) turned out to be 6020 ng/g; in data set [1] (plasma, read-out: Exposure in plasma), 7560 ng/mL.

Regarding `COc1ccc2c(c1)CN(c1nc(C(=O)N(C)c3cc(Cl)c(F)cc3C(=O)O)c(Cl)s1)C2` [Compound 4], the IC50 in data set [2] (cell-free enzyme assay, high kynurenine) was found to be 17 nM; in data set [3] (cell-free enzyme assay, high kynurenine, read-out: Human KMO IC50), 14 nM. Moreover, the “inhibition rate, Rat-KMO cell-free assay (Figure 1B source data)” value in data set [2] (conc 0.0003 μM, duplicates) is 10.786%; in data set [2] (conc 0.001 μM, duplicates), 13.043%; in data set [2] (conc 0.003 μM, duplicates), 19.707%; in data set [2] (conc 0.01 μM, duplicates) it was 32.767%; in data set [2] (conc 0.03 μM, duplicates), 60.579%; in data set [2] (conc 0.1 μM, duplicates), 80.975%. For the same molecule, the “inhibition rate, Rat-KMO cell-free assay (Figure 1B source data)” value in data set [2] (conc 0.3 μM, duplicates) is listed as 95.593%; in data set [2] (conc 1 μM, duplicates), 93.954%. Besides, the inhibition at 0.0003 µM in data set [2] (conc 0.0003 μM, duplicates, read-out: inhibition rate, Rat-KMO cell-free assay (Figure 1B source data)) stood at 11.1%; in data set [3] (conc 0.0003 μM, duplicates, read-out: inhibition rate, Hs-KMO cell-free assay (Figure 1A source data)) it was 8.45%. The inhibition at 0.001 µM came out at 12.6% in data set [2] (conc 0.001 μM, duplicates, read-out: inhibition rate, Rat-KMO cell-free assay (Figure 1B source data)) and 4.54% in data set [3] (conc 0.001 μM, duplicates, read-out: inhibition rate, Hs-KMO cell-free assay (Figure 1A source data)). Moreover, the inhibition at 0.003 µM stood at 21.2% in data set [2] (conc 0.003 μM, duplicates, read-out: inhibition rate, Rat-KMO cell-free assay (Figure 1B source data)) and 15.5% in data set [3] (conc 0.003 μM, duplicates, read-out: inhibition rate, Hs-KMO cell-free assay (Figure 1A source data)). For the same molecule, the inhibition at 0.01 µM stood at 33% in data set [2] (conc 0.01 μM, duplicates, read-out: inhibition rate, Rat-KMO cell-free assay (Figure 1B source data)) and 34.9% in data set [3] (conc 0.01 μM, duplicates, read-out: inhibition rate, Hs-KMO cell-free assay (Figure 1A source data)). Moreover, the inhibition at 0.03 µM in data set [2] (conc 0.03 μM, duplicates, read-out: inhibition rate, Rat-KMO cell-free assay (Figure 1B source data)) came to 60.5%; in data set [3] (conc 0.03 μM, duplicates, read-out: inhibition rate, Hs-KMO cell-free assay (Figure 1A source data)) it was 74.2%. The inhibition at 0.1 µM in data set [2] (conc 0.1 μM, duplicates, read-out: inhibition rate, Rat-KMO cell-free assay (Figure 1B source data)) was determined as 83%; in data set [3] (conc 0.1 μM, duplicates, read-out: inhibition rate, Hs-KMO cell-free assay (Figure 1A source data)), 92.8%. In addition, the inhibition at 0.3 µM in data set [2] (conc 0.3 μM, duplicates, read-out: inhibition rate, Rat-KMO cell-free assay (Figure 1B source data)) stood at 101%; in data set [3] (conc 0.3 μM, duplicates, read-out: inhibition rate, Hs-KMO cell-free assay (Figure 1A source data)) it was 106%. In addition, the inhibition at 1 µM in data set [2] (conc 1 μM, duplicates, read-out: inhibition rate, Rat-KMO cell-free assay (Figure 1B source data)) was determined as 97.8%; in data set [3] (conc 1 μM, duplicates, read-out: inhibition rate, Hs-KMO cell-free assay (Figure 1A source data)), 104%. Further, the “inhibition rate, Hs-KMO cell-free assay (Figure 1A source data)” value is 6.826% in data set [3] (conc 0.001 μM, duplicates); 16.103% in data set [3] (conc 0.003 μM, duplicates); 39.429% in data set [3] (conc 0.01 μM, duplicates); 71.311% in data set [3] (conc 0.03 μM, duplicates); 87.583% in data set [3] (conc 0.1 μM, duplicates); 98.840% in data set [3] (conc 0.3 μM, duplicates). For the same molecule, the “inhibition rate, Hs-KMO cell-free assay (Figure 1A source data)” value in data set [3] (conc 1 μM, duplicates) is listed as 98.570%.
